Results as given in publication PMC5031999, “Structure and catalytic mechanism of monodehydroascorbate reductase, MDHAR, from Oryza sativa L. japonica” (Scientific Reports, 2016).

How the values were obtained:
Assay type in all cases: binding
OsMDHAR [1] = target: T1, OsMDHAR (Oryza sativa, UniProt Q652L6, E196A); test: X-ray crystal structure, […] Å; conditions: crystal soaked with 50 mM NADPH until colourless; FAD bound
T1 construct: gene MDAR3; amplified from rice cDNA; monomer by size exclusion

OsMDHAR [2] = target: T2, OsMDHAR (Oryza sativa, UniProt Q652L6, Y349F); test: X-ray crystal structure, […] Å; conditions: crystal soaked with 10 mM NADH, then ISD; quaternary complex with FAD and ISD
T2 construct: gene MDAR3; amplified from rice cDNA; monomer by size exclusion

OsMDHAR [3] = target: T3, OsMDHAR (Oryza sativa, UniProt Q652L6); test: X-ray crystal structure, […] Å; conditions: co-purified FAD, one per monomer; NAD-free crystal
T3 construct: gene MDAR3; amplified from rice cDNA; monomer by size exclusion

OsMDHAR [4] = target: T1, OsMDHAR; test: isothermal titration calorimetry; conditions: text names both NADH and NAD for the titrated ligand
OsMDHAR [5] = target: T3, OsMDHAR; test: isothermal titration calorimetry; conditions: text names both NADH and NAD for the titrated ligand

T3 sequence (Q652L6 whole entry): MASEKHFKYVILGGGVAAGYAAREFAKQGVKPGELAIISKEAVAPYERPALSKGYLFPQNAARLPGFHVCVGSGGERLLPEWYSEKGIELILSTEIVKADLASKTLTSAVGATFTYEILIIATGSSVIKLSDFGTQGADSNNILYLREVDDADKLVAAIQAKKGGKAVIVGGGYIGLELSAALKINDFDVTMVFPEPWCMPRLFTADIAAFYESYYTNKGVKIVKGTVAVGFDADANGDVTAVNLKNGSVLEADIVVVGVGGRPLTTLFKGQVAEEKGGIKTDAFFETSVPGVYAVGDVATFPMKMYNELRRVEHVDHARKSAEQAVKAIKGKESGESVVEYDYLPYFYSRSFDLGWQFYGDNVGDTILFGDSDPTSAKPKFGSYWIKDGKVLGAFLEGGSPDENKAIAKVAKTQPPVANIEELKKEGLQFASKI
T1 sequence (Q652L6 whole entry E196A): as the sequence (Q652L6 whole entry) above, with E196A counted along it
T2 sequence (Q652L6 whole entry Y349F): as the sequence (Q652L6 whole entry) above, with Y349F counted along it

Compound: NC(=O)c1ccc[n+]([C@@H]2O[C@H](COP(=O)(O)OP(=O)(O)OC[C@H]3O[C@@H](n4cnc5c(N)ncnc54)[C@H](OP(=O)(O)O)[C@@H]3O)[C@@H](O)[C@H]2O)c1 [NADP]
- X-ray crystal structure, 1.8 Å (OsMDHAR [1]): the structure of the E196A mutant-NADP complex revealed

Compound: NC(=O)c1ccc[n+]([C@@H]2O[C@H](COP(=O)(O)OP(=O)(O)OC[C@H]3O[C@@H](n4cnc5c(N)ncnc54)[C@H](O)[C@@H]3O)[C@@H](O)[C@H]2O)c1 [NAD]
- X-ray crystal structure, 1.9 Å (OsMDHAR [2]): We also determined quaternary complex structures with FAD, NAD, and AsA or ISD

Compound: Cc1cc2nc3c(=O)[nH]c(=O)nc-3n(C[C@H](O)[C@H](O)[C@H](O)COP(=O)(O)OP(=O)(O)OC[C@H]3O[C@@H](n4cnc5c(N)ncnc54)[C@H](O)[C@@H]3O)c2cc1C [FAD]
- X-ray crystal structure, 1.7 Å (OsMDHAR [3]): All four structures contain one molecule of FAD per monomer

Compound: NC(=O)C1=CN([C@@H]2O[C@H](COP(=O)(O)OP(=O)(O)OC[C@H]3O[C@@H](n4cnc5c(N)ncnc54)[C@H](O)[C@@H]3O)[C@@H](O)[C@H]2O)C=CC1 [NADH]
- binding affinity (OsMDHAR [4]): there is no difference between WT and E196A in NAD binding affinity
- binding affinity (OsMDHAR [5]): we measured the binding affinity of wild type (WT) and E196A for NADH and NADPH
